Source: ChEMBL document CHEMBL4020733, “Approaches towards the development of chimeric DPP4/ACE inhibitors for treating metabolic syndrome” (Bioorg Med Chem Lett, 2017)
pIC50: −log10 of the molar value.

Assays:
[1] = Plasma protein binding in mouse; type: ADME, cell-free; conditions: read-out: PPB (converted)
[2] = Plasma protein binding in human; type: ADME, cell-free; conditions: read-out: PPB (converted)
Dipeptidyl peptidase 4 = Dipeptidyl peptidase 4 (Homo sapiens, UniProt P27487); test: Inhibition of human plasma DPP4
[3] = Plasma protein binding in rat; type: ADME, cell-free; conditions: read-out: PPB (converted)
Aminopeptidase N = Aminopeptidase N (Homo sapiens, UniProt P15144); test: Inhibition of APN (unknown origin)
Neprilysin = Neprilysin (Homo sapiens, UniProt P08473); test: Inhibition of NEP (unknown origin)
[4] = target: Angiotensin-converting enzyme (Homo sapiens, UniProt P12821); test: Inhibition of human plasma ACE
[5] = Inhibition of APP (unknown origin); parameters: species or system Homo sapiens

Chain of Angiotensin-converting enzyme (P12821 whole entry): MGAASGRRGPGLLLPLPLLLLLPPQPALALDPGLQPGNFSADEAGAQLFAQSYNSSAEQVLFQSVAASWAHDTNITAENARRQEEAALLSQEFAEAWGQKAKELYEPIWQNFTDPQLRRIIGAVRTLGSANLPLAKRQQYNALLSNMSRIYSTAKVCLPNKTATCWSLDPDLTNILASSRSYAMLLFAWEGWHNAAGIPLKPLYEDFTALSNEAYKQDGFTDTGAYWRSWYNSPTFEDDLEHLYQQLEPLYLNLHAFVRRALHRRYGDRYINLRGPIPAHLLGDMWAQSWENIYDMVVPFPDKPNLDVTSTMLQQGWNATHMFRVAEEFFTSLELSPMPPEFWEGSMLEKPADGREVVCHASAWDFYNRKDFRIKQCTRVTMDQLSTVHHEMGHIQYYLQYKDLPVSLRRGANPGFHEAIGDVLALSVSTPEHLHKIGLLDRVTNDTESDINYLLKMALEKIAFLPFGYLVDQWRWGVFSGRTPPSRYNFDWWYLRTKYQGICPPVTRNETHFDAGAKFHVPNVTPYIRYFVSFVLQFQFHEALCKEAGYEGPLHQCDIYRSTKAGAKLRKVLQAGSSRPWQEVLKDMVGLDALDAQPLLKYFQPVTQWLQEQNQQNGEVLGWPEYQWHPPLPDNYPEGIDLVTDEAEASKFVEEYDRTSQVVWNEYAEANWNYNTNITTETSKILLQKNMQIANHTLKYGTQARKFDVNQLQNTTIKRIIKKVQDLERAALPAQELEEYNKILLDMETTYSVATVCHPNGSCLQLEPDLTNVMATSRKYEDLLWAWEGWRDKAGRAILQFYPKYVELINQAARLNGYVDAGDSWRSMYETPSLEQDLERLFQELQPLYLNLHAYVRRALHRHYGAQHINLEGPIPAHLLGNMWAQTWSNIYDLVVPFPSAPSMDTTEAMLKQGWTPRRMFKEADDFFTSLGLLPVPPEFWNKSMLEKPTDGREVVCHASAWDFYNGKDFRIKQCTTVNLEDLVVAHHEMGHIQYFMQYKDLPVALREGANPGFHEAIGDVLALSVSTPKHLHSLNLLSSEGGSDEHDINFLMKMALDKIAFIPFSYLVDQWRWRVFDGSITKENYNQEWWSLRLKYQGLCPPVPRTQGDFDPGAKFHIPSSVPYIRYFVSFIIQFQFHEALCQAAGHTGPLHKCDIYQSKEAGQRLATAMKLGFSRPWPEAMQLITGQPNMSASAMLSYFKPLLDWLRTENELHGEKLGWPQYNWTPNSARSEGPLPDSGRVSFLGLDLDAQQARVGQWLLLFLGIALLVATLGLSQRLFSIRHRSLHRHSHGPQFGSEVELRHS
Chain of Dipeptidyl peptidase 4 (P27487 whole entry): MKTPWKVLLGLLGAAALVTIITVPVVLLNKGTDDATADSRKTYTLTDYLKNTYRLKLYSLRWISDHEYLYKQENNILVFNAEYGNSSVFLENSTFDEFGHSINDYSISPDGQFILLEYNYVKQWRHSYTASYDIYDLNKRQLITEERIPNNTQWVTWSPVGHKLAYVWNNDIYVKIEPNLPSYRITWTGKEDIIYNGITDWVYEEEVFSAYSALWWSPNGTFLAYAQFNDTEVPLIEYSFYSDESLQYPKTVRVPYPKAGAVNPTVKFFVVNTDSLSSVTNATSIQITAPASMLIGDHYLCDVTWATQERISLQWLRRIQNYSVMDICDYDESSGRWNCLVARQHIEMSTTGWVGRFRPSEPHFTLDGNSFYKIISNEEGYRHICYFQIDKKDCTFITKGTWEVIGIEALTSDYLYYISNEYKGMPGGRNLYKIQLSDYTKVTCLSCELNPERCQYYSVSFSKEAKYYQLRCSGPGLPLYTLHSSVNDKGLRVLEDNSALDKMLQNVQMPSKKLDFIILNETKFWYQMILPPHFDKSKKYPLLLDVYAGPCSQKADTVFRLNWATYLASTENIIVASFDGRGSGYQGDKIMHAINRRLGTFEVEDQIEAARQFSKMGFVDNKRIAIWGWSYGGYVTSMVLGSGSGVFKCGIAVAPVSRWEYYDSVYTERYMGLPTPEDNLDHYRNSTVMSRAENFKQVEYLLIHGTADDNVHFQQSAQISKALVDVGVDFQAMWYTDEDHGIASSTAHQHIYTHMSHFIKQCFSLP
Chain of Aminopeptidase N (P15144 whole entry): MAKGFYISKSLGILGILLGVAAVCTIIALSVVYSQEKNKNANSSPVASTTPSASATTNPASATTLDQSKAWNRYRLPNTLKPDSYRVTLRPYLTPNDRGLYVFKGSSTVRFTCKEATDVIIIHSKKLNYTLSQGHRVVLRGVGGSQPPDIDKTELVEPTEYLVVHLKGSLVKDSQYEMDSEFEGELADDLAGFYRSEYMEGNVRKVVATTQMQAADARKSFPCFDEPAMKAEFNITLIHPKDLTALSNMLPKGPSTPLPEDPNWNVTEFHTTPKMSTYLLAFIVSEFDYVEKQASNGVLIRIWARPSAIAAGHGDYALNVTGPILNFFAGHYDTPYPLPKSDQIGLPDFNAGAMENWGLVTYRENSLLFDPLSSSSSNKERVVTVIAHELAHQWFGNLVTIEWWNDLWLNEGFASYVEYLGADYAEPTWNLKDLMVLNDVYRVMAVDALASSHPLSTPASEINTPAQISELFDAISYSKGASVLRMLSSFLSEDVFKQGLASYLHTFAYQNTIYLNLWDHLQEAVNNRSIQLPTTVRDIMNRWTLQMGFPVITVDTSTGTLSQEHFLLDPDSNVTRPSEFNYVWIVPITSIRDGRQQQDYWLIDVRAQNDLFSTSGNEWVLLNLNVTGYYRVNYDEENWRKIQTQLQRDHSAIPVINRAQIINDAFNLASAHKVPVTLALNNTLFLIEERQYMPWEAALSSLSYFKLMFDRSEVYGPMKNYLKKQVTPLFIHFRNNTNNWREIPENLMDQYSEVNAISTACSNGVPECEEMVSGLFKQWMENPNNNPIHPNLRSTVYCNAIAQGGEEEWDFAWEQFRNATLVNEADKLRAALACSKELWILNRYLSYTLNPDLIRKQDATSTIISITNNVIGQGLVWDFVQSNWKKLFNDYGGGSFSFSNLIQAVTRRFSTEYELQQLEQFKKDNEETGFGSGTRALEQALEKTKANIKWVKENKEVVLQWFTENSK
Chain of Neprilysin (P08473 whole entry): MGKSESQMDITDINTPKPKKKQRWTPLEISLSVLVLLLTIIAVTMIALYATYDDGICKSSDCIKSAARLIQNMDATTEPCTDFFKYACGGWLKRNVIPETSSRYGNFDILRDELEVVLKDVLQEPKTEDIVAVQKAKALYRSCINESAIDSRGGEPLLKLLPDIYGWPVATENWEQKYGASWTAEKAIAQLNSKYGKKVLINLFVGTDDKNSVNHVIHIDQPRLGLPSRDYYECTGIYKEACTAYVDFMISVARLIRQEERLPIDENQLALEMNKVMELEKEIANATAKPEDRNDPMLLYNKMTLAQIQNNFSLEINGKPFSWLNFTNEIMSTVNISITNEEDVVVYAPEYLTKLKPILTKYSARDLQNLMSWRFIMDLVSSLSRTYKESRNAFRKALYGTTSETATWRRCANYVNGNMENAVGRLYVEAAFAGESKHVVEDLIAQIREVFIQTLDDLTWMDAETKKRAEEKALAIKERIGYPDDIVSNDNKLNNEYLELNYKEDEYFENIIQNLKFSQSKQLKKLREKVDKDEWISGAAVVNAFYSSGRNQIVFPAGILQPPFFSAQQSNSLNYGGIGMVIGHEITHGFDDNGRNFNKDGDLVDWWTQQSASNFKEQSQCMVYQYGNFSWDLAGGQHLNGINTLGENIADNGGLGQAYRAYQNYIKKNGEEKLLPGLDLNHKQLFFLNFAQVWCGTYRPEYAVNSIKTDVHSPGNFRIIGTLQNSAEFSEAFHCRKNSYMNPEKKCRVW

Compound C[C@H](N[C@@H](CCc1ccccc1)C(=O)O)C(=O)N1CCC[C@H]1C(=O)O [ENALAPRILAT ANHYDROUS] has a fraction unbound [1] of 0.424, a fraction unbound [2] of 0.341 and a pIC50 (Dipeptidyl peptidase 4) of under 4.00. The fraction unbound [3] was 0.456.

Work on N[C@@H](CC(=O)N1CCn2c(nnc2C(F)(F)F)C1)Cc1cc(F)c(F)cc1F [SITAGLIPTIN] yielded a pIC50 (Aminopeptidase N) of under 4.00, a pIC50 (Neprilysin) of under 4.00 and a fraction unbound [1] of 0.707. For the same compound, the pIC50 [4] was 4.96, the fraction unbound [2] was 0.53 and the pIC50 [5] was under 4.00. For the same compound, the fraction unbound [3] was 0.587.
